Results reported in patent publication US20220273659A1, “HETEROCYCLIC COMPOUNDS AS KINASE INHIBITORS” (NUVATION BIO INC., priority 2019, published 2022).
Where two headings read alike, the source gives them in different places.

Columns and labels:
[1] = target: T1, CDK2 (cyclin A) (Homo sapiens, UniProt P24941); assay: Z'-LYTE kinase assay; format: biochemical
T1 construct: purchased Invitrogen Life Technologies (assay service)
Procedure: IC50 values of compounds against CDK2 (cyclin A) were determined by Z′-LYTE™ These screening assays were performed at Invitrogen Life Technologies (Grand Island, N.Y.) on a low volume NBS, black 384-well plate (#4514, Corning). 0.1 μL of 100×test compound in 100% DMSO (at specific solutions) was mixed with 2.4 μL of Kinase Buffer (50 mM HEPES pH 7.5, 0.01% BRIJ-35, 10 mM MgCl2, 1 mM EGTA), 5 μL of 2× Kinase (1.22-10.3 ng CDK2/cyclin A)/Peptide (2 μM Ser/Thr 12), and 2.5 μL of 4×ATP solution (31 μM). The plates were shaken for 30 seconds, and incubated for 60 minutes at room temperature. Development Reagent Solution (5 μL of 1:1024 dilution) was added to the plates followed with another 30-second plate shake and the plates were further incubated at room temperature for one hour. The plates were read on fluorescence plate reader with Dual emission at 445 nm and 520 nm.
The following equations were used for Z′-LYTE™ Screening Assay Data Analysis. Percent inhibition (100-% activity) was fitted to the “four-parameter logistic model” in XLfit for determination of IC50 values.

[2] = target: T2, CDK1 (cyclin B) (Homo sapiens, UniProt P06493); assay: Z'-LYTE kinase assay; format: biochemical
T2 construct: purchased Invitrogen Life Technologies (assay service)
T2 sequence (P06493 whole entry): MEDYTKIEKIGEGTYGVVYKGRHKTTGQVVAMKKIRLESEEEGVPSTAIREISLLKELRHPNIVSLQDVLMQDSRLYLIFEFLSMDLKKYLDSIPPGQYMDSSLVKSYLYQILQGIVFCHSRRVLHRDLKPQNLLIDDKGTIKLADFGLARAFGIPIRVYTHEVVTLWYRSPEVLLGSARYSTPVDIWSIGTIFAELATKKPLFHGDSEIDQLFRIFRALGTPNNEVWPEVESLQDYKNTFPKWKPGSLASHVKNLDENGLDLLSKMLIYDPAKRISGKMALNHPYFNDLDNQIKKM
T2 sequence (P14635 whole entry partner): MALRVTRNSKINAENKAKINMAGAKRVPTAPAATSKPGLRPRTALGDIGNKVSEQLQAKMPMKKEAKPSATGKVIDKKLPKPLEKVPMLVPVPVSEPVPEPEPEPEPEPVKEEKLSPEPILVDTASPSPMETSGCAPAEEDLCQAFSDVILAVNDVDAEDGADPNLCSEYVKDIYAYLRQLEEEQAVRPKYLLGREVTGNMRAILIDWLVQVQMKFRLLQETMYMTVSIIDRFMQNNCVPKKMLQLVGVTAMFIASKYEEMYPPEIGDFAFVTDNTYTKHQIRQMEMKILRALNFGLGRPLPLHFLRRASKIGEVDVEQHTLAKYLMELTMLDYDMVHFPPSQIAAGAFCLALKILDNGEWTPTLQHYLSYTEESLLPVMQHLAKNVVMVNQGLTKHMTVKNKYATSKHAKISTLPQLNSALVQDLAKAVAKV
Procedure: The plates were shaken for 30 seconds, and incubated for 60 minutes at room temperature. […] The plates were read on fluorescence plate reader with Dual emission at 445 nm and 520 nm.
The following equations were used for Z′-LYTE™ Screening Assay Data Analysis.

[3] = target: T3, FMS kinase (Homo sapiens, UniProt P07333); assay: LanthaScreen Eu Kinase Binding Assay (ATP, fluorescent-PolyGT substrate); format: biochemical
T3 construct: purchased Invitrogen (Life Technologies)
T3 sequence (P07333 20-972): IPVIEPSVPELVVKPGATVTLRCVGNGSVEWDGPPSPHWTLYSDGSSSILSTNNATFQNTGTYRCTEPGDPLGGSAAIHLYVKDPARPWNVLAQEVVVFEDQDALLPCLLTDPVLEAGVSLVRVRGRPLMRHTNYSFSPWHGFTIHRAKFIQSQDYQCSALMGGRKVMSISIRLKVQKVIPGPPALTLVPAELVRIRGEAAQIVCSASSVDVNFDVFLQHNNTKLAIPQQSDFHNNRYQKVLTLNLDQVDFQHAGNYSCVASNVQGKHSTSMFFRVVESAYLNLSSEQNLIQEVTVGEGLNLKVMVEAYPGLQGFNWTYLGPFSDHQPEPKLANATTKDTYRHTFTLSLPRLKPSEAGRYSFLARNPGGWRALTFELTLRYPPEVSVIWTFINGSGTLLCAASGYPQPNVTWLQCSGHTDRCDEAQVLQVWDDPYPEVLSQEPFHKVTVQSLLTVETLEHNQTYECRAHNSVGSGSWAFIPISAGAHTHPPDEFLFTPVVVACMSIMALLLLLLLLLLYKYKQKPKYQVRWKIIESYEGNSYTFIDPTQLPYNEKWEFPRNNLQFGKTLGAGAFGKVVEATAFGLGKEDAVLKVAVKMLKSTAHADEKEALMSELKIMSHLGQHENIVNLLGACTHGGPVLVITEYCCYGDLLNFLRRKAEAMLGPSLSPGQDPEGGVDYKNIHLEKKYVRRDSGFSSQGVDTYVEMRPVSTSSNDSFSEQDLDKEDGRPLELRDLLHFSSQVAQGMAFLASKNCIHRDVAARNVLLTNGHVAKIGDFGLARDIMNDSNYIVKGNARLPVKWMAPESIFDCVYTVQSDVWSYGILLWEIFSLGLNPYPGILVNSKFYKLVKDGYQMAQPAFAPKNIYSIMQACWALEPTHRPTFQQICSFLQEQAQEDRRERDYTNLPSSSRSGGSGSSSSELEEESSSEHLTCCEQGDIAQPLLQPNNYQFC
Procedure, shortened: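 Kinase (1.25 nM) preincubated 10 min with 3-fold compound dilutions, then ATP 10 μM and fluorescent PolyGT substrate 200 nM added for 1 h in the dark at room temperature. Stopped with Tb-antibody (4 nM) and EDTA 20 mM; TR-FRET at 340 nm excitation, 495/520 nm emission; IC50 from four-parameter fit.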

[4] = system: MCF-7 breast adenocarcinoma cells; assay: Cancer cell proliferation assay, single agent (cell viability); format: cell-based; conditions: Homo sapiens, MCF7, Table 4; Rb positive; treatment 144 Hr with medium change at 72 Hr; Cell Titer-Glo or resazurin
Procedure, shortened: (§1)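 Cells seeded day 1, then exposed on day 2 to 7–9 compound concentrations (e.g. 1.1 nM–10 μM); BT-549 for 24 h, MCF-7 and DU4475 for 144 h with medium change at 72 h. Viability by CellTiter-Glo or resazurin; IC50 from variable-slope sigmoidal fit.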

[5] = system: DU4475 breast carcinoma cells; assay: as above; format: cell-based; conditions: Homo sapiens, DU-4475; Table 4; Rb negative; treatment 144 Hr with medium change at 72 Hr; Cell Titer-Glo or resazurin
Procedure, shortened: as §1

[6] = target: T4, CDK4 (Homo sapiens, UniProt P11802); assay: In vitro kinase inhibition IC50, luminescence (ADP Glo), retinoblastoma substrate; format: biochemical; conditions: read-out: CDK4/D1 IC50
T4 construct: purchased Invitrogen PR8064A
T4 sequence (P11802 whole entry): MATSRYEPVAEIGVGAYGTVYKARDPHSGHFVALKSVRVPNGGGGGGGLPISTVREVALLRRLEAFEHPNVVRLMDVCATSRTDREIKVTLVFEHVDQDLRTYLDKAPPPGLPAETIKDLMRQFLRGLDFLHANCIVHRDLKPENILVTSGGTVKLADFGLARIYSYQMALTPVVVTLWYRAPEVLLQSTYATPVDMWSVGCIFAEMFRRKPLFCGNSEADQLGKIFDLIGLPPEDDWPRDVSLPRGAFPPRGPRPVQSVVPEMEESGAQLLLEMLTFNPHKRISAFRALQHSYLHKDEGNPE
T4 sequence (P24385 whole entry partner): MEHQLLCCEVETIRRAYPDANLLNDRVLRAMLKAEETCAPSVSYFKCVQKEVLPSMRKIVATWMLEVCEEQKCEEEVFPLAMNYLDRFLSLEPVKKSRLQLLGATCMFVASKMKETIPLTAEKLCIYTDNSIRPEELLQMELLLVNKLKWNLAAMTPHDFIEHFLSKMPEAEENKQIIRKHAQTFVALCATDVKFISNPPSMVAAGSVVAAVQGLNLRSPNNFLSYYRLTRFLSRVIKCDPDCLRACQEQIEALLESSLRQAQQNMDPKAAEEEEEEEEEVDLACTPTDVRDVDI
Procedure, shortened: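 CDK4 enzyme (5 nM, Invitrogen) was combined with test compound and a mix of retinoblastoma substrate (1 μM) plus ATP (25 μM) in kinase buffer, 30 μL/well in 96-well half area white plates. After 2H at room temperature, ADP Glo reagent stopped the reaction for 45 min, then detection reagent was added and luminescence was read.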

[7] = target: T5, CDK6 (Homo sapiens, UniProt Q00534); assay: as above; format: biochemical; conditions: read-out: CDK6/D1 IC50
T5 construct: purchased Invitrogen PR8422B
T5 sequence (Q00534 whole entry): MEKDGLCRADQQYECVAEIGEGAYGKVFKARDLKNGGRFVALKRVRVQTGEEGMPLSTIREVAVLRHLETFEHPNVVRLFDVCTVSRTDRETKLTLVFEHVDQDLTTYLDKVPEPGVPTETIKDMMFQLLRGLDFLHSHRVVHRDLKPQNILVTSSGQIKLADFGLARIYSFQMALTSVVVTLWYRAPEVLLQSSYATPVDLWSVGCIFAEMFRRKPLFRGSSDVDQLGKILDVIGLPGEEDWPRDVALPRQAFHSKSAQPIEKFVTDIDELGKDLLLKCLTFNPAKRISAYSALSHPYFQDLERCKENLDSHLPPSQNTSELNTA
T5 sequence (P24385 whole entry partner): as the sequence (P24385 whole entry partner) above
Procedure, shortened: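 Recombinant CDK6 (5 nM) with retinoblastoma substrate (1 μM) and 25 μM ATP, compound at final 0.1–200 nM, incubated 2 h at room temperature. ADP formed detected by ADP-Glo luminescence. IC50 from four-parameter logistic fit of percent inhibition.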

Compound	IC50 [1] [µM]	IC50 ([2]; read-out: CDK1/B IC50) [µM]	IC50 [3] [µM]	IC50 [4] [µM]	IC50 [5] [µM]	IC50 [6] [µM]	IC50 [7] [µM]	IC50 [2] [µM]
N#Cc1cc2cnc(Nc3ccc4c(c3)CCNC4)nc2n([C@H]2C[C@@H]3CC[C@H]2C3)c1=O (relative stereo) [Compound No. 354, 8-((S,2S,4R)-bicyclo[2.2.1]heptan-2-yl)-7-oxo-2-(1,2,3,4-tetrahydroisoquinolin-6-ylamino)-7,8-dihydropyrido[2,3-d]pyrimidine-6-carbonitrile]	0.176	0.534	0.0035	0.12	0.32	0.012	0.012	
N#Cc1cc2cnc(Nc3ccc4c(c3)CCNC4)nc2n(CC2CCCCC2)c1=O [Compound No. 347, 8-(cyclohexylmethyl)-7-oxo-2-((1,2,3,4-tetrahydroisoquinolin-6-yl)amino)-7,8-dihydropyrido[2,3-d]pyrimidine-6-carbonitrile]	0.668	1.53	0.003	0.405	1.24	> 0.173	> 0.174	
CS(=O)(=O)N1CCC(Nc2ncc3cc(C#N)c(=O)n(CC4CCCCC4)c3n2)CC1 [Compound No. 348, 8-(cyclohexylmethyl)-2-((1-(methylsulfonyl)piperidin-4-yl)amino)-7-oxo-7,8-dihydropyrido[2,3-d]pyrimidine-6-carbonitrile]	0.219		0.031	0.725	6.84	0.062	0.055	1.38
CS(=O)(=O)N1CCC(Nc2ncc3cc(C#N)c(=O)n(C4COCC4O)c3n2)CC1 (stereo not shown) [Compound No. 350, 8-(4-hydroxytetrahydrofuran-3-yl)-2-((1-(methylsulfonyl)piperidin-4-yl)amino)-7-oxo-7,8-dihydropyrido[2,3-d]pyrimidine-6-carbonitrile]	0.235	2.27	> 5	> 10	> 30	> 0.2	> 0.2	
CS(=O)(=O)N1CC(Nc2ncc3cc(C#N)c(=O)n(C4CCCC4)c3n2)C1 [Compound No. 372, 8-cyclopentyl-2-((1-(methylsulfonyl)azetidin-3-yl)amino)-7-oxo-7,8-dihydropyrido[2,3-d]pyrimidine-6-carbonitrile]	0.705	> 4.17	1.8		> 10	> 0.2	> 0.2	
Cn1ccc(S(=O)(=O)N2CCC(Nc3ncc4cc(C#N)c(=O)n(C5CCCC5)c4n3)CC2)n1 [Compound No. 373, 8-cyclopentyl-2-((1-((1-methyl-1H-pyrazol-3-yl)sulfonyl)piperidin-4-yl)amino)-7-oxo-7,8-dihydropyrido[2,3-d]pyrimidine-6-carbonitrile]	0.042		1.44		0.2	0.004	0.004	0.912
COCCS(=O)(=O)N1CCC(Nc2ncc3cc(C#N)c(=O)n(C4CCCC4)c3n2)CC1 [Compound No. 374, 8-cyclopentyl-2-((1-((2-methoxyethyl)sulfonyl)piperidin-4-yl)amino)-7-oxo-7,8-dihydropyrido[2,3-d]pyrimidine-6-carbonitrile]	0.07		0.838		0.69	0.005	0.006	0.667
N#Cc1cc2cnc(Nc3ccc4c(c3)CCNC4)nc2n(-c2c(F)cccc2F)c1=O [Compound No. 375, 8-(2,6-difluorophenyl)-7-oxo-2-((1,2,3,4-tetrahydroisoquinolin-6-yl)amino)-7,8-dihydropyrido[2,3-d]pyrimidine-6-carbonitrile]	0.303	1.31	0.013		0.615	0.132	0.147	
CS(=O)(=O)N1CCC(Nc2ncc3cc(C#N)c(=O)n(-c4c(F)cccc4F)c3n2)CC1 [Compound No. 376, 8-(2,6-difluorophenyl)-2-((1-(methylsulfonyl)piperidin-4-yl)amino)-7-oxo-7,8-dihydropyrido[2,3-d]pyrimidine-6-carbonitrile]	0.17		0.402		2.44	0.159	0.058	1.46
N#Cc1cc2cnc(Nc3ccc(S(N)(=O)=O)cc3)nc2n(C2CCCC2)c1=O [Compound No. 377, 4-((6-cyano-8-cyclopentyl-7-oxo-7,8-dihydropyrido[2,3-d]pyrimidin-2-yl)amino)benzenesulfonamide]	0.025	0.42	0.027		0.365	0.015	0.011	
N#Cc1cc2cnc(NC3CCN(S(=O)(=O)CCCCCCO)CC3)nc2n(C2CCCC2)c1=O [Compound No. 378, 8-cyclopentyl-2-((1-((6-hydroxyhexyl)sulfonyl)piperidin-4-yl)amino)-7-oxo-7,8-dihydropyrido[2,3-d]pyrimidine-6-carbonitrile]	0.03		0.402		0.67	0.003	0.005	0.325
N#Cc1cc2cnc(NC3CCN(S(=O)(=O)N4CCOCC4)CC3)nc2n(C2CCCC2)c1=O [Compound No. 383, 8-cyclopentyl-2-(1-(morpholinosulfonyl)piperidin-4-ylamino)-7-oxo-7,8-dihydropyrido[2,3-d]pyrimidine-6-carbonitrile]	0.008			0.145	2.44	0.011	0.006	0.233
CS(=O)(=O)N1CCC(Nc2ncc3cc(C#N)c(=O)n([C@H]4CCC(F)(F)C4)c3n2)CC1 [Compound No. 384, (S)-8-(3,3-difluorocyclopentyl)-2-(1-(methylsulfonyl)piperidin-4-ylamino)-7-oxo-7,8-dihydropyrido[2,3-d]pyrimidine-6-carbonitrile]	0.028			1.6	5.69	0.024	0.02	0.585
CS(=O)(=O)N1CCC(Nc2ncc3cc(C#N)c(=O)n([C@@H]4CCC(F)(F)C4)c3n2)CC1 [Compound No. 385, (R)-8-(3,3-difluorocyclopentyl)-2-(1-(methylsulfonyl)piperidin-4-ylamino)-7-oxo-7,8-dihydropyrido[2,3-d]pyrimidine-6-carbonitrile]	0.096			2.82	> 10	0.049	0.065	2.62
CS(=O)(=O)N1CCC(Nc2ncc3cc(C#N)c(=O)n([C@@H]4C[C@H]5CC[C@@H]4C5)c3n2)CC1 [Compound No. 386, 8-((1R,2R,4S)-bicyclo[2.2.1]heptan-2-yl)-2-(1-(methylsulfonyl)piperidin-4-ylamino)-7-oxo-7,8-dihydropyrido[2,3-d]pyrimidine-6-carbonitrile]	0.0095			0.27	0.87	0.005	0.004	0.118
CS(=O)(=O)N1CCC(Nc2ncc3cc(C#N)c(=O)n([C@H]4C[C@@H]5CC[C@H]4C5)c3n2)CC1 [Compound No. 387, 8-((1S,2S,4R)-bicyclo[2.2.1]heptan-2-yl)-2-(1-(methylsulfonyl)piperidin-4-ylamino)-7-oxo-7,8-dihydropyrido[2,3-d]pyrimidine-6-carbonitrile]	0.088			0.58	7.06	0.02	0.017	1.1
